Article PMC7419507, “In vitro Cas9-assisted editing of modular polyketide synthase genes to produce desired natural product derivatives” (Nature Communications, 2020)
Values joined by “and” are separate entries in the source; they are usually repeats but may differ in a detail not shown here. Equal values may be shown once.

Legend:
[1] = Cytotoxicity assay (CellTiter-Glo, 72 h), MESO-1; type: cell-based; conditions: human, MESO-1 malignant pleural mesothelioma cells, conc 50 uM; raw replicate data; read-out: MESO1 viability (%)
How it was run: (§1)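 1000 cells/well; 4 h settle, then 2-fold serial dilutions (0.5% DMSO final), 72 h, 37 °C/5% CO2. Read-out: CellTiter-Glo luminescence. Media: RPMI1640 + 10% FBS (Jurkat, MESO-1; Jurkat also Glutamax), DMEM + 10% FBS (SKOV-3).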

[2] = tested on: malignant pleural mesothelioma MESO-1 cells; assay: Cytotoxicity assay (CellTiter-Glo, 72 h), MESO-1; type: cell-based; conditions: raw replicate data
How it was run: as §1

[3] = Cytotoxicity assay (CellTiter-Glo, 72 h), SKOV-3; type: cell-based, human; conditions: human, raw replicate data, read-out: SKOV3 viability (%)
How it was run: as §1

[4] = tested on: human ovarian adenocarcinoma SKOV-3 cells; assay: Cytotoxicity assay (CellTiter-Glo, 72 h), SKOV-3; type: cell-based; conditions: raw replicate data
How it was run: as §1

Compound: COC1CC2CCC(C)C(O)(O2)C(=O)C(=O)N2CCCCC2C(=O)OC(C(C)CC2CCC(O)C(OC)C2)CC(O)CC(=O)C(C)C=C(C)C(O)CC(=O)C(C)CC(C)C=CC=CC=C1C (stereo not shown) [Compound 13]
- viability at 72 h, 50 uM [1]: 32.5%
- MESO1 viability (%) ([2]; conc 9.53674e-5 uM): 98.4% and 101.6%
- MESO1 viability (%) ([2]; conc 0.000190735 uM): 99.7% and 102.2%
- MESO1 viability (%) ([2]; conc 0.00038147 uM): 106.9% and 102.5%
- MESO1 viability (%) ([2]; conc 0.000762939 uM): 98.2% and 93.2%
- MESO1 viability (%) ([2]; conc 0.00152588 uM): 104.8% and 103.9%
- MESO1 viability (%) ([2]; conc 0.00305176 uM): 98.6% and 103.9%
- MESO1 viability (%) ([2]; conc 0.00610352 uM): 105.0% and 100.2%
- MESO1 viability (%) ([2]; conc 0.012207 uM): 91.1%
- MESO1 viability (%) ([2]; conc 0.0244141 uM): 101.5% and 98.1%
- MESO1 viability (%) ([2]; conc 0.0488281 uM): 89.5% and 85.7%
- MESO1 viability (%) ([2]; conc 0.0976562 uM): 82.3% and 85.5%
- MESO1 viability (%) ([2]; conc 0.195312 uM): 72.4% and 76.8%
- MESO1 viability (%) ([2]; conc 0.390625 uM): 77.4% and 73.9%
- MESO1 viability (%) ([2]; conc 0.78125 uM): 67.0% and 66.3%
- MESO1 viability (%) ([2]; conc 1.5625 uM): 65.2% and 74.0%
- MESO1 viability (%) ([2]; conc 3.125 uM): 66.5% and 63.4%
- MESO1 viability (%) ([2]; conc 6.25 uM): 73.7% and 75.2%
- MESO1 viability (%) ([2]; conc 12.5 uM): 72.5% and 66.5%
- MESO1 viability (%) ([2]; conc 25 uM): 64.3% and 66.3%
- MESO1 viability (%) ([2]; conc 50 uM): 29.9% and 28.1%
- viability at 72 h, 9.53674e-05 uM ([3]; SKOV-3 cells (ovarian adenocarcinoma), conc 9.53674e-5 uM): 101%
- viability at 72 h, 0.000190735 uM ([3]; SKOV-3 cells (ovarian adenocarcinoma), conc 0.000190735 uM): 105%
- viability at 72 h, 0.00038147 uM ([3]; SKOV-3 cells (ovarian adenocarcinoma), conc 0.00038147 uM): 103%
- viability at 72 h, 0.000762939 uM ([3]; SKOV-3 cells (ovarian adenocarcinoma), conc 0.000762939 uM): 104%
- viability at 72 h, 0.00152588 uM ([3]; SKOV-3 cells (ovarian adenocarcinoma), conc 0.00152588 uM): 106%
- viability at 72 h, 0.00305176 uM ([3]; SKOV-3 cells (ovarian adenocarcinoma), conc 0.00305176 uM): 104%
- viability at 72 h, 0.00610352 uM ([3]; SKOV-3 cells (ovarian adenocarcinoma), conc 0.00610352 uM): 104%
- viability at 72 h, 0.012207 uM ([3]; SKOV-3 cells (ovarian adenocarcinoma), conc 0.012207 uM): 100%
- viability at 72 h, 0.0244141 uM ([3]; SKOV-3 cells (ovarian adenocarcinoma), conc 0.0244141 uM): 97.8%
- viability at 72 h, 0.0488281 uM ([3]; SKOV-3 cells (ovarian adenocarcinoma), conc 0.0488281 uM): 100%
- viability at 72 h, 0.0976562 uM ([3]; SKOV-3 cells (ovarian adenocarcinoma), conc 0.0976562 uM): 93.5%
- viability at 72 h, 0.195312 uM ([3]; SKOV-3 cells (ovarian adenocarcinoma), conc 0.195312 uM): 80.1%
- viability at 72 h, 0.390625 uM ([3]; SKOV-3 cells (ovarian adenocarcinoma), conc 0.390625 uM): 72.3%
- viability at 72 h, 12.5 uM ([3]; SKOV-3 cells (ovarian adenocarcinoma), conc 12.5 uM): 74%
- viability at 72 h, 25 uM ([3]; SKOV-3 cells (ovarian adenocarcinoma), conc 25 uM): 76.6%
- viability at 72 h, 50 uM ([3]; SKOV-3 cells (ovarian adenocarcinoma), conc 50 uM): 61.1%
- viability at 72 h, 0.78125 uM ([3]; SKOV-3 ovarian adenocarcinoma cells, conc 0.78125 uM): 70.5%
- viability at 72 h, 1.5625 uM ([3]; SKOV-3 ovarian adenocarcinoma cells, conc 1.5625 uM): 74.6%
- viability at 72 h, 3.125 uM ([3]; SKOV-3 ovarian adenocarcinoma cells, conc 3.125 uM): 67.3%
- viability at 72 h, 6.25 uM ([3]; SKOV-3 ovarian adenocarcinoma cells, conc 6.25 uM): 76.1%
- SKOV3 viability (%) ([4]; conc 9.53674e-5 uM): 107.4% and 106.9%
- SKOV3 viability (%) ([4]; conc 0.000190735 uM): 98.8% and 103.7%
- SKOV3 viability (%) ([4]; conc 0.00038147 uM): 108.6% and 110.4%
- SKOV3 viability (%) ([4]; conc 0.000762939 uM): 108.3% and 103.9%
- SKOV3 viability (%) ([4]; conc 0.00152588 uM): 101.0% and 99.9%
- SKOV3 viability (%) ([4]; conc 0.00305176 uM): 105.3% and 103.9%
- SKOV3 viability (%) ([4]; conc 0.00610352 uM): 110.1% and 106.3%
- SKOV3 viability (%) ([4]; conc 0.012207 uM): 101.2% and 96.8%
- SKOV3 viability (%) ([4]; conc 0.0244141 uM): 104.0%
- SKOV3 viability (%) ([4]; conc 0.0488281 uM): 98.0% and 96.8%
- SKOV3 viability (%) ([4]; conc 0.0976562 uM): 97.2% and 95.3%
- SKOV3 viability (%) ([4]; conc 0.195312 uM): 69.7% and 74.1%
- SKOV3 viability (%) ([4]; conc 0.390625 uM): 69.6% and 63.1%
- SKOV3 viability (%) ([4]; conc 0.78125 uM): 63.6% and 66.9%
- SKOV3 viability (%) ([4]; conc 1.5625 uM): 66.7%
- SKOV3 viability (%) ([4]; conc 3.125 uM): 68.3% and 74.5%
- SKOV3 viability (%) ([4]; conc 6.25 uM): 79.3% and 78.5%
- SKOV3 viability (%) ([4]; conc 12.5 uM): 75.9%
- SKOV3 viability (%) ([4]; conc 25 uM): 73.5% and 81.4%
- SKOV3 viability (%) ([4]; conc 50 uM): 55.5% and 58.9%
